From patent US7674454B2, “Enzyme-prodrug therapy for prosthetic joint repair” (Innovata Limited, priority 2004, dated 2010)

Experiments:
interface cells [1] = test: Transduction and cell killing assay: CTL102 infection, then CB1954, WST metabolic activity readout; assay type: cell-based, human
Protocol: Cell viability was then determined using a metabolic activity assay.
For all experiments described, interface cells were used. Interface tissue was removed from the periprosthetic space during revision-surgery by an orthopedic surgeon and collected in sterile phosphate buffered saline (PBS). Connective tissue and fat were removed thoroughly and the interface tissue was digested for at least two hours at 37° C. using collagenase 1A (1 mg/ml; Sigma, St Louis, Mo., USA). Cells were then harvested by filtering the tissue/collagenase substance through a 200 μm filter (NPBI, Emmer-Compascuum, The Netherlands). The cells were cultured in 75 cm^2 flasks (Cellstar, Greiner, Alphen aan de Rijn, The Netherlands) with Iscove's modified Dulbecco's medium (IMDM; Biowitthaker, Verviers, Belgium), supplemented with glutamax (GibcoBRL, Paisley, UK), penicillin and streptomycin (Boehringer Mannheim, Germany), and 10% fetal calf serum (FCS; GibcoBRL, Paisley, UK) at 37° C. and 5% CO2.
Before each experiment interface cells were detached from the flasks using 0.25% trypsin (GibcoBRL, Paisley, UK). The cells were counted in a bürker counter and death cells were excluded by trypan blue. Cells were seeded in a 96 wells-plate (flat bottom) at a density of 5,000 cells per well. Cells were incubated overnight to allow attachment to the bottom. […]
Hereafter the absorbance at 415 nm was measured.

interface cells [2] = test: NTR/CB1954 cell killing in the presence of, or after transient exposure to, contrast medium; assay type: cell-based, human; conditions: results not shown
From the text: The effect of contrast medium (iotrolan) on HAdV5-transduction of interface cells was investigated with Ad.CMV.LacZ. Transducibility of the cells increases with the concentration of HAdV-5 vector. However, the contrast medium has restraining influence on the transduction efficiency. With higher concentrations of iotrolan, the HAdV-5 vector concentration has less effect on gene transfer efficiency. […] The effect of iotrolan on the transduction is statistically significant (p<0.001). Furthermore, differences between cells from different individuals (n=6) have been observed. To evaluate the effect of contrast medium on cell killing by NTR/CB1954, the previously described experiment for the efficiency of cell killing was repeated in the presence of contrast medium. […] This incompatibility may be due to the presence of iodine within the contrast media. Screening of all available contrast media may allow determination of a contrast medium compatible with viral transduction.
The influence of transient exposure to contrast medium on the transduction of interface cells was investigated. Interface cells were exposed to contrast medium for 0 to 120 minutes and the period between washing away of the contrast medium and performing the NTR/CB1954 cell killing approach was varied. […]

[3] = Djeha et al, 2001; cited from earlier work
loosened hip prosthesis = test: Phase-1 clinical study: intra-articular vector, prodrug, then cement injection; conditions: Patient 1, twelve hours after prodrug injection
Protocol: After 48 hours, to allow transduction of target cells and expression of the nitroreductase transgene, CB1954 (at a dosage of 24 mg m^−2) is injected intra-articularly.

interface cells [4] = test: Effect of contrast medium on interface cells, WST-1 viability; assay type: cell-based, human; conditions: 4 hours exposure, 0-50% contrast medium, viability after 3 more days; p=0.563
Protocol: Interface cells were seeded in 96-wells plates. Into each well 50 μl of IMDM/20% FCS and 50 μl of a solution containing contrast medium and 0.9% NaCl in various concentrations (0, 12.5, 25, and 50% contrast medium) were added. The contrast medium used was the low-osmolarity, nonionic dimer iotrolan (Isovist; Schering, Berlin, Germany). After four hours of exposure to the contrast medium, the cells were washed twice and incubated in IMDM/10% FCS. The cells were cultured for three more days, changing the culture medium every day. On day four, cell viability was determined with the WST-1 cell viability assay kit (Roche, Mannheim, Germany) according to the manufacturers protocol.

interface cells [5] = test: Effect of contrast medium on HAdV-5 transduction of interface cells; assay type: cell-based, human; conditions: contrast medium concentration of 50%, 4 hours; p<0.001
Protocol: Interface cells were seeded in 96-wells plates. After overnight incubation cells were infected with Ad.CMV.LacZ (concentrations of 0, 25, 100, and 200 pfu/cell) in IMDM/20% FCS, 50 μl per well. Fifty μl Iotrolan (Isovist) in 0.9% NaCl was added in concentrations of 0, 25, 50, and 100%. (When diluted in the culture medium these concentrations decreased to 0, 12.5, 25, and 50%.) Four hours after infection, the cells were washed twice with IMDM and incubated for the rest of the day in IMDM/10% FCS at 37° C. and 5% CO2. The Ad.CMV.LacZ transduced cells were cultured for three days after removal of the vector and contrast medium. Subsequently, the cells were fixed and stained for β-galactasidase activity. The transduction rate was assessed as described above.

Row | SMILES | killing of interface cells (interface cells [1]; 200 virus pfu/cell and CB1954 50 μM, cells from two revision surgery patients) | dose dependence of killing (interface cells [1]; CTL102 0-200 IU/cell, CB1954 0-50 μM, cells from both patients) | cell killing by NTR/CB1954 (interface cells [2]) | tolerability in man [3] | nausea (loosened hip prosthesis) | effect on viability of interface cells (interface cells [4]) | transduction of interface cells by Ad.CMV.LacZ (interface cells [5])
1 | NC(=O)c1cc(N2CC2)c([N+](=O)[O-])cc1[N+](=O)[O-] [CB1954, 5-(aziridin-1-yl)-2,4-dinitrobenzamide] | 90% | virus and CB1954-dose dependent killing | cells are not killed | well-tolerated in man | 1 WHO grade | – | –
2 | CN(C(=O)CC(=O)N(C)c1c(I)c(C(=O)NC(CO)C(O)CO)c(I)c(C(=O)NC(CO)C(O)CO)c1I)c1c(I)c(C(=O)NC(CO)C(O)CO)c(I)c(C(=O)NC(CO)C(O)CO)c1I (stereo not shown) [iotrolan] | – | – | – | – | – | does not affect the viability of the cells at any concentration | none of the cells were transduced
